ChEMBL document CHEMBL4304811, “Development of a Water-Soluble Indolylmaleimide Derivative IM-93 Showing Dual Inhibition of Ferroptosis and NETosis” (ACS Med Chem Lett, 2019)

Legend:
[1] = test system: Tyrosine-protein kinase ABL1 (Homo sapiens), P00519 [F317L]; test: Binding affinity to human non-phosphorylated ABL1 F317L mutant (S229 to K512 residues) expressed in mammalian expression system assessed as residual binding level at 10 uM by Kinomescan method relative to control
[2] = target: Protein kinase C iota type (Homo sapiens) (UniProt P41743); test: Binding affinity to wild-type human partial length PRKCI (H215 to V587 residues) expressed in mammalian expression system assessed as residual binding level at 10 uM by Kinomescan method relative to control
Sequence of Protein kinase C iota type (Homo sapiens) (P41743 whole entry, the tested form may be a part): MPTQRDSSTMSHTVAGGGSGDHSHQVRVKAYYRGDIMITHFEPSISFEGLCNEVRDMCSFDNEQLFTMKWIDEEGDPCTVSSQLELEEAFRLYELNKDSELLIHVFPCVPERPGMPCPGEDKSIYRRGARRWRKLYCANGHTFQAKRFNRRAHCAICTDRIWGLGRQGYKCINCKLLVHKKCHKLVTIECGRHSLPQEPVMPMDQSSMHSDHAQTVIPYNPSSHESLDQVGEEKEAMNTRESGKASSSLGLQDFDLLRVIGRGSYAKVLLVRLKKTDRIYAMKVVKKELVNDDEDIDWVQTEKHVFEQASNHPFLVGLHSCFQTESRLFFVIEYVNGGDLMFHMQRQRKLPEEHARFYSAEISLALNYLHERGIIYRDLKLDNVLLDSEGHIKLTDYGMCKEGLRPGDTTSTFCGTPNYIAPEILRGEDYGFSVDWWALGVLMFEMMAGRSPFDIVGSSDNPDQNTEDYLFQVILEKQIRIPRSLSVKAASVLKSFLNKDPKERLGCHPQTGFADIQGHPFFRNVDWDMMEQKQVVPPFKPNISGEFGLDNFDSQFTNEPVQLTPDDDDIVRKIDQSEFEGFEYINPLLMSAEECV

[3] = target: Cyclin-dependent kinase 5 (Homo sapiens) (UniProt Q00535); test: Binding affinity to wild-type human full length CDK5 (M1 to P292 residues) expressed in bacterial expression system assessed as residual binding level at 10 uM by Kinomescan method relative to control
Sequence of Cyclin-dependent kinase 5 (Homo sapiens) (Q00535 whole entry, looked up, the tested form may be a part): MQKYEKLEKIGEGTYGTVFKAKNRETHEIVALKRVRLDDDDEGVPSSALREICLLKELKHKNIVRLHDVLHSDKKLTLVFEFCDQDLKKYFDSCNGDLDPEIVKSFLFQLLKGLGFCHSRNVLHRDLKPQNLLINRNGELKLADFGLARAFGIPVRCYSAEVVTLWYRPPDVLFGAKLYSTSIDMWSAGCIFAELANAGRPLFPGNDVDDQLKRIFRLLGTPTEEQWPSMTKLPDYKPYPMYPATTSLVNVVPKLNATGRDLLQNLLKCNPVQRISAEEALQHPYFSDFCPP

[4] = target: Cyclin-dependent kinase 9 (Homo sapiens) (UniProt P50750); test: Binding affinity to wild-type human full length CDK9 (M1 to F372 residues) expressed in bacterial expression system assessed as residual binding level at 10 uM by Kinomescan method relative to control
[5] = target: Insulin-like growth factor 1 receptor (Homo sapiens) (UniProt P08069); test: Binding affinity to wild-type human partial length IGF1R (L972 to D1294 residues) expressed in bacterial expression system assessed as residual binding level at 10 uM by Kinomescan method relative to control
Sequence of Insulin-like growth factor 1 receptor (Homo sapiens) (P08069 31-736 limits assumed): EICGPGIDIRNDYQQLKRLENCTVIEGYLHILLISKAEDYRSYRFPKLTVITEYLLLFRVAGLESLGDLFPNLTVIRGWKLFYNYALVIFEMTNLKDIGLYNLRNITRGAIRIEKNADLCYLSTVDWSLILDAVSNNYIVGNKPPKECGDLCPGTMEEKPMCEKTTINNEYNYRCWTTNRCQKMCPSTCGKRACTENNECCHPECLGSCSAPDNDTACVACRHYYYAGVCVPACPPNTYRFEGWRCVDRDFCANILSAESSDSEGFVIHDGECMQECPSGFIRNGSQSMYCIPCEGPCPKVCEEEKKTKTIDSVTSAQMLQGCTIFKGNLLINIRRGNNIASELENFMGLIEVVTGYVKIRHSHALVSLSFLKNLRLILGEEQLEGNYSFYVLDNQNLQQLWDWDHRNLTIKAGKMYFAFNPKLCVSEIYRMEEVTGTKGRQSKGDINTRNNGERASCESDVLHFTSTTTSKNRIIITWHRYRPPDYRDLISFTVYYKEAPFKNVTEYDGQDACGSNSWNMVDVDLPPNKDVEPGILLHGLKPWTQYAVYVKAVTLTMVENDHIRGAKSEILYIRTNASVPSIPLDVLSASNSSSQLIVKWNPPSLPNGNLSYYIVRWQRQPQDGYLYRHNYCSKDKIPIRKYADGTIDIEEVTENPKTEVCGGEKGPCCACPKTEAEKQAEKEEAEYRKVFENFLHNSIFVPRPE
Sequence of Insulin-like growth factor 1 receptor (Homo sapiens) (P08069 741-1367 limits assumed): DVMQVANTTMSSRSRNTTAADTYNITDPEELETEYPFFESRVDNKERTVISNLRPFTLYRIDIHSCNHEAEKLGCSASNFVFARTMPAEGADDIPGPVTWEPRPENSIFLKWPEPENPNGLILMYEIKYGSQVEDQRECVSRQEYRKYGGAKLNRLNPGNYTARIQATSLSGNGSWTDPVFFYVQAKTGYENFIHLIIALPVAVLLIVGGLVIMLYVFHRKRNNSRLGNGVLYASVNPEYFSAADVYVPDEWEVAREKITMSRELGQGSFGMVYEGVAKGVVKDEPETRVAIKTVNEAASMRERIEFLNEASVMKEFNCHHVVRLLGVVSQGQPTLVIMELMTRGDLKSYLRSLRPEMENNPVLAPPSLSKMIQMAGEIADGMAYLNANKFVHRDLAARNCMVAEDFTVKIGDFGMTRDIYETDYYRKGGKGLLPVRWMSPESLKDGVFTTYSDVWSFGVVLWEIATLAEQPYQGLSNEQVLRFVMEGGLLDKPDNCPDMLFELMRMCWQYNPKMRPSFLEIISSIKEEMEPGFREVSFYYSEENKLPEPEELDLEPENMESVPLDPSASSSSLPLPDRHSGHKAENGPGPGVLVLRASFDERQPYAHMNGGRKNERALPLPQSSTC

[6] = target: Mast/stem cell growth factor receptor Kit (Homo sapiens) (UniProt P10721); test: Binding affinity to wild-type human partial length KIT (I571 to D952 residues) expressed in bacterial expression system assessed as residual binding level at 10 uM by Kinomescan method relative to control
[7] = target: Serine/threonine-protein kinase D3 (Homo sapiens) (UniProt O94806); test: Binding affinity to wild-type human partial length PRKD3 (S543 to E863 residues) expressed in bacterial expression system assessed as residual binding level at 10 uM by Kinomescan method relative to control
[8] = target: Ephrin type-A receptor 6 (Homo sapiens) (UniProt Q9UF33); test: Binding affinity to wild-type human partial length EPHA6 (Y700 to E1046 residues) expressed in bacterial expression system assessed as residual binding level at 10 uM by Kinomescan method relative to control
Sequence of Ephrin type-A receptor 6 (Homo sapiens) (Q9UF33 whole entry, the tested form may be a part): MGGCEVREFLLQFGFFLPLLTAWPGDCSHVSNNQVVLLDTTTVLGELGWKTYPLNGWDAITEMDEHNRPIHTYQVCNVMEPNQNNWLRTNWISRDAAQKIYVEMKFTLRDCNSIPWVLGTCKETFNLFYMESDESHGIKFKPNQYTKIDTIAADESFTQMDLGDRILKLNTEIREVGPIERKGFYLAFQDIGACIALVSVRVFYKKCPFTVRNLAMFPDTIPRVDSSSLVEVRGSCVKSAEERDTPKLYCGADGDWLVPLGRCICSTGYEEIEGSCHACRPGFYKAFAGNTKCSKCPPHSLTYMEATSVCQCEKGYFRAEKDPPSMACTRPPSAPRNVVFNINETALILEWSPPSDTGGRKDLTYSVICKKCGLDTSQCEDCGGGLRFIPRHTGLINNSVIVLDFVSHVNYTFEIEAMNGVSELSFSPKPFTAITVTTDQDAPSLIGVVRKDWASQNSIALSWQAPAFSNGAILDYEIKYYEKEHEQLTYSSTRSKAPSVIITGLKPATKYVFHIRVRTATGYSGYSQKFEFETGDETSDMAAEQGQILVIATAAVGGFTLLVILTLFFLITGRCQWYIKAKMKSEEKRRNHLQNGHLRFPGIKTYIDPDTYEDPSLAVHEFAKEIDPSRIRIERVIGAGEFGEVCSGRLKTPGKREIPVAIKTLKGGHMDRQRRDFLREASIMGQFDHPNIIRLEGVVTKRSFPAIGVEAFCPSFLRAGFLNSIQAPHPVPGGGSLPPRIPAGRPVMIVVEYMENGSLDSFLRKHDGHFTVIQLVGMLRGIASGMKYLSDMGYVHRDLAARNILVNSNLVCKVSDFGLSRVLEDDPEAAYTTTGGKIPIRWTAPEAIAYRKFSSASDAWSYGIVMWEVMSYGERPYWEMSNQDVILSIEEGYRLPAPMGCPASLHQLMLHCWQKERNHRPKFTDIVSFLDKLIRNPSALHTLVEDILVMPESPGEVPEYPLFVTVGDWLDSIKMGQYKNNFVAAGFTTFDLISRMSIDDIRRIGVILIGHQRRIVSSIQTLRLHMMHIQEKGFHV

[9] = target: Dual specificity mitogen-activated protein kinase kinase 5 (Homo sapiens) (UniProt Q13163); test: Binding affinity to wild-type human partial length MEK5 (L98 to P448 residues) expressed in mammalian expression system assessed as residual binding level at 10 uM by Kinomescan method relative to control
Sequence of Dual specificity mitogen-activated protein kinase kinase 5 (Homo sapiens) (Q13163 whole entry, the tested form may be a part): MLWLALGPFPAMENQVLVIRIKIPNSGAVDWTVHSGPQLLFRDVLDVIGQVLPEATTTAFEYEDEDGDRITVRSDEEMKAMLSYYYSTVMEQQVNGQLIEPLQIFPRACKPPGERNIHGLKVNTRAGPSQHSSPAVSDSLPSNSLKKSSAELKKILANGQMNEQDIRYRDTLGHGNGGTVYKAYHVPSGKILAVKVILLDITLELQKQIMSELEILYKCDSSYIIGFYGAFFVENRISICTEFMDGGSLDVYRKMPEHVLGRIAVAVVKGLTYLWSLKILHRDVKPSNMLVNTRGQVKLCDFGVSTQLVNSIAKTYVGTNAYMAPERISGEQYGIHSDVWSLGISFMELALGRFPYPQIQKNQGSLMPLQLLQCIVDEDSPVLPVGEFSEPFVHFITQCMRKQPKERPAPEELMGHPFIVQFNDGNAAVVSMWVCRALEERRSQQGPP

[10] = target: Serine/threonine-protein kinase Sgk2 (Homo sapiens) (UniProt Q9HBY8); test: Binding affinity to wild-type human partial length SGK2 (L54 to C427 residues) expressed in mammalian expression system assessed as residual binding level at 10 uM by Kinomescan method relative to control
[11] = target: Serine/threonine-protein kinase 17A (Homo sapiens) (UniProt Q9UEE5); test: Binding affinity to wild-type human partial length DRAK1 (R32 to E363 residues) expressed in bacterial expression system assessed as residual binding level at 10 uM by Kinomescan method relative to control
[12] = target: Phosphatidylinositol 3-kinase C2 domain-containing subunit gamma (Homo sapiens) (UniProt O75747); test: Binding affinity to wild-type human partial length PIK3C2G (M1 to I1446 residues) expressed in mammalian expression system assessed as residual binding level at 10 uM by Kinomescan method relative to control
[13] = target: Dual specificity mitogen-activated protein kinase kinase 1 (Homo sapiens) (UniProt Q02750); test: Binding affinity to wild-type human full length MEK1 (M1 to V393 residues) expressed in mammalian expression system assessed as residual binding level at 10 uM by Kinomescan method relative to control
[14] = target: Dual specificity tyrosine-phosphorylation-regulated kinase 1B (Homo sapiens) (UniProt Q9Y463); test: Binding affinity to wild-type human full length DYRK1B (M1 to S629 residues) expressed in bacterial expression system assessed as residual binding level at 10 uM by Kinomescan method relative to control
[15] = target: Activin receptor type-2A (Homo sapiens) (UniProt P27037); test: Binding affinity to wild-type human ACVR2A (V171 to T499 residues) expressed in bacterial expression system assessed as residual binding level at 10 uM by Kinomescan method relative to control
Sequence of Activin receptor type-2A (Homo sapiens) (P27037 whole entry, the tested form may be a part): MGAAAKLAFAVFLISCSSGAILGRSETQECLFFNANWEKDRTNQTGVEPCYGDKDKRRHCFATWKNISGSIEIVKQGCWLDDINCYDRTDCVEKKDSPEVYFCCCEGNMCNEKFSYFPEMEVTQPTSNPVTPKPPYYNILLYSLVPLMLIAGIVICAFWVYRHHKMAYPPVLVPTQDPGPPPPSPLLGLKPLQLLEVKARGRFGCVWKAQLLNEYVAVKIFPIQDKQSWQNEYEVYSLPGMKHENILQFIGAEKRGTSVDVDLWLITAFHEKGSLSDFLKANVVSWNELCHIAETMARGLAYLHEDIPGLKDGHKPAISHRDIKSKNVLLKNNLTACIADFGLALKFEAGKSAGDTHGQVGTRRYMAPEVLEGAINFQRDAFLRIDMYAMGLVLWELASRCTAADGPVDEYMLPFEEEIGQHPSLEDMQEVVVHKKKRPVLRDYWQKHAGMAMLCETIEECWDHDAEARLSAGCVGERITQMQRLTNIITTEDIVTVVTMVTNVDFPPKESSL

[16] = target: Protein kinase C epsilon type (Homo sapiens) (UniProt Q02156); test: Binding affinity to wild-type human partial length PRKCE (A378 to P737 residues) expressed in mammalian expression system assessed as residual binding level at 10 uM by Kinomescan method relative to control
[17] = target: Mitogen-activated protein kinase 3 (Homo sapiens) (UniProt P27361); test: Binding affinity to wild-type human full length ERK1 (M1 to P379 residues) expressed in bacterial expression system assessed as residual binding level at 10 uM by Kinomescan method relative to control
Sequence of Mitogen-activated protein kinase 3 (Homo sapiens) (P27361 whole entry, the tested form may be a part): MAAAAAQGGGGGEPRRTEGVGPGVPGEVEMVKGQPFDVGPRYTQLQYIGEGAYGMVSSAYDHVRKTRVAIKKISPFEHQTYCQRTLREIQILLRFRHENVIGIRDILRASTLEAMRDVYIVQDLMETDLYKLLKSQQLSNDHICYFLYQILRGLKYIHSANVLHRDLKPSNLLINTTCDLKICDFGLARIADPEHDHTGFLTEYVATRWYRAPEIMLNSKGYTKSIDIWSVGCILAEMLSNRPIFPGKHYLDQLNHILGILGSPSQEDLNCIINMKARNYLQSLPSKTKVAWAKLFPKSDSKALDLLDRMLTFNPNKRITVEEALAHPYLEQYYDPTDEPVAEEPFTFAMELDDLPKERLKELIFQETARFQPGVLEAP

[18] = target: Dual specificity mitogen-activated protein kinase kinase 2 (Homo sapiens) (UniProt P36507); test: Binding affinity to wild-type human full length MEK2 (M1 to V400 residues) expressed in mammalian expression system assessed as residual binding level at 10 uM by Kinomescan method relative to control
[19] = target: Dual specificity mitogen-activated protein kinase kinase 4 (Homo sapiens) (UniProt P45985); test: Binding affinity to wild-type human partial length MEK4 (S84 to D399 residues) expressed in mammalian expression system assessed as residual binding level at 10 uM by Kinomescan method relative to control
Sequence of Dual specificity mitogen-activated protein kinase kinase 4 (Homo sapiens) (P45985 whole entry, the tested form may be a part): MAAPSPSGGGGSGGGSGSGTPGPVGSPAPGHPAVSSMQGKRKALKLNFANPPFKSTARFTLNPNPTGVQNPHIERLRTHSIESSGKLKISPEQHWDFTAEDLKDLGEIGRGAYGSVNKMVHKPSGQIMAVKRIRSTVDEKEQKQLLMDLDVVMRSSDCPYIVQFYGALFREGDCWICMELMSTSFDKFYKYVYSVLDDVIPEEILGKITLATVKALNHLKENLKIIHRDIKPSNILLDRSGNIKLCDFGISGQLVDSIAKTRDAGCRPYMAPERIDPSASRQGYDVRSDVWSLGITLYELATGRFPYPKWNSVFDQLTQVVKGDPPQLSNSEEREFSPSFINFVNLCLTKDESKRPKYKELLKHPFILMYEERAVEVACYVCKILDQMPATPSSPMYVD

[20] = target: Activin receptor type-1-like (Homo sapiens) (UniProt P37023); test: Binding affinity to wild-type human ACVRL1 (L164 to Q503 residues) expressed in bacterial expression system assessed as residual binding level at 10 uM by Kinomescan method relative to control
[21] = target: Tyrosine-protein kinase HCK (Homo sapiens) (UniProt P08631); test: Binding affinity to wild-type human full length HCK (M22 to P526 residues) expressed in bacterial expression system assessed as residual binding level at 10 uM by Kinomescan method relative to control
[22] = target: Myosin-IIIa (Homo sapiens) (UniProt Q8NEV4); test: Binding affinity to wild-type human partial length MYO3A (M1 to K338 residues) expressed in bacterial expression system assessed as residual binding level at 10 uM by Kinomescan method relative to control
[23] = target: CDK4/Cyclin D3 (Homo sapiens) (UniProt P11802+P30281); test: Binding affinity to wild-type human full length CDK4/cyclinD3 (M1 to E303 residues) expressed in mammalian expression system assessed as residual binding level at 10 uM by Kinomescan method relative to control
[24] = target: Eukaryotic translation initiation factor 2-alpha kinase 1 (Homo sapiens) (UniProt Q9BQI3); test: Binding affinity to wild-type human partial length EIF2AK1 (Q147 to E603 residues) expressed in mammalian expression system assessed as residual binding level at 10 uM by Kinomescan method relative to control

Structure (SMILES): CC(C)N1C(=O)C(NCCCN(C)C)=C(c2cn(C)c3ccccc23)C1=O.Cl
- Activity [1]: 84%
- Activity [2]: 88%
- Activity [3]: 96%
- Activity [4]: 100%
- Activity [5]: 80%
- Activity [6]: 99%
- Activity [7]: 91%
- Activity [8]: 100%
- Activity [9]: 77%
- Activity [10]: 82%
- Activity [11]: 97%
- Activity [12]: 84%
- Activity [13]: 84%
- Activity [14]: 93%
- Activity [15]: 100%
- Activity [16]: 94%
- Activity [17]: 87%
- Activity [18]: 94%
- Activity [19]: 100%
- Activity [20]: 100%
- Activity [21]: 100%
- Activity [22]: 89%
- Activity [23]: 93%
- Activity [24]: 82%
